Values after ≈ are worked out from the molar mass of the structure shown. Where a name gives a salt, the structure may show the parent alone. Read-outs that look alike come from different tables or passages of the source.
Legend:
E. coli gyrase = E. coli gyrase (Escherichia coli, UniProt P0AES4+P0AES6); assay: biochemical
N. gonorrhoeae 2637 = assay: Test D cross resistance antibacterial assay (MIC); type: cell-based, Neisseria gonorrhoeae; settings: parent strain, derivative of MS11; for MIC: Neisseria gonorrhoeae, 2637, read-out: Minimum Inhibitory Concentrations N. g. 2637
Protocol: (§1) Test D-Cross Resistance Antibacterial Assay
(§2) The compounds of the present invention were tested against an assortment of ciprofloxacin resistant E. coli and S. aureus organisms described below using standard microtitration techniques (Cohen, et al., Antimicrob. Agents Chemother., 1985;28:766; Heifetz, et al., Antimicrob. Agents Chemother., 1974;6:124). […].
N. gonorrhoeae 2637 (N.g. 2637) is a derivative of Neisseria gonorrhoeae MS11 containing a TAC-LAC recA to allow for control of homologous recombination [Tonjum T. et al. Molecular Microbiology 1995, 16, 451-64].

N. gonorrhoeae 2709 = assay: Test D cross resistance antibacterial assay (MIC); type: cell-based, Neisseria gonorrhoeae; settings: for MIC fold increase N. g. 2709 (in parentheses): relative to MIC against N. g. 2637; for MIC: Neisseria gonorrhoeae, 2709, read-out: Minimum Inhibitory Concentrations N. g. 2709
Protocol: as §1, §2
N. gonorrhoeae 2709 (N.g. 2709): Isogenic to N. gonorrhoeae 2637 contains gyrA quinolone-resistant determining region (QRDR) mutations (S91F D95G).

N. gonorrhoeae 2693 = assay: Test D cross resistance antibacterial assay (MIC); type: cell-based, Neisseria gonorrhoeae; settings: for MIC fold increase N. g. 2693 (in parentheses): relative to MIC against N. g. 2637
Protocol: as §1, §2
N. gonorrhoeae 2693 (N.g. 2693): Isogenic to N. gonorrhoeae 2709 containing parC QRDR mutations [P88S and E91K].

S. aureus UC-76 = assay: Test D cross resistance antibacterial assay (MIC); type: cell-based; settings: wild type sensitive laboratory strain; for MIC: Staphylococcus aureus, UC76, read-out: Minimum Inhibitory Concentrations S. aureus UC-76
Protocol: as §1, §2
S. aureus UC-76: Typical sensitive laboratory strain (Wild type).

S. aureus 2554 = assay: Test D cross resistance antibacterial assay (MIC); type: cell-based; settings: for MIC fold increase S. aureus 2554 (in parentheses): relative to MIC against S. aureus UC-76
Protocol: as §1, §2
S. aureus 2554: Isogenic to S. aureus 2552, with point mutation at position 80 of grlA subunit.

S. aureus 29213 = assay: Test A antibacterial assay, standard microtitration (MIC); type: cell-based
Protocol: (§3) Test A-Antibacterial Assay
(§4) The compounds of the present invention were tested against an assortment of Gram-negative and Gram-positive organisms using standard microtitration techniques (Cohen, et al., Antimicrob. Agents Chemother., 1985;28:766; Heifetz, et al., Antimicrob. Agents Chemother:, 1974;6:124). […]

E. faecalis RB1 = assay: as above; type: cell-based; settings: for MIC: Enterococcus faecalis
Protocol: as §3, §4

E. coli Tol C = assay: as above; type: cell-based; settings: for MIC: Escherichia coli, read-out: Minimum Inhibitory Concentrations E. coli Tol C
Protocol: as §3, §4

S. pyogenes C203 = assay: as above; type: cell-based; settings: for MIC: Streptococcus pyogenes
Protocol: as §3, §4

E. coli B90 = assay: as above; type: cell-based; settings: for MIC: Escherichia coli
Protocol: as §3, §4

E. coli MC 4100 = assay: as above; type: cell-based; settings: for MIC: Escherichia coli
Protocol: as §3, §4

S. aureus 2558 = assay: Test D cross resistance antibacterial assay (MIC); type: cell-based; settings: for MIC fold increase S. aureus 2558 (in parentheses): relative to MIC against S. aureus UC-76
Protocol: as §1, §2
S. aureus 2558: Isogenic to S. aureus 2554, with point mutation at position 84 of gyrA subunit.

S. aureus 2552 = assay: Test D cross resistance antibacterial assay (MIC); type: cell-based; settings: for MIC fold increase S. aureus 2552 (in parentheses): relative to MIC against S. aureus UC-76; for MIC: Staphylococcus aureus, 2552, read-out: Minimum Inhibitory Concentrations S. aureus 2552
Protocol: as §1, §2

S. pyogenes = assay: Test C in vivo activity, median protective dose in mice given lethal systemic infections; settings: PO, lethal systemic infection with S. pyogenes
[1] = Test E pharmacokinetic behavior in monkeys; type: in vivo, Male Cynomologous Monkeys; settings: male, plasma; Monkey; 5 mg/kg IV infusion over 15 minutes
Protocol: (§5) Test E-Pharmacokinetic Behavior or Quinazolinediones vs. 3-Aminoquinazolinediones
(§6) The compounds of the present invention were tested for pharmacokinetic behavior against the structurally related 3-aminoquinazolinediones in rats, dogs and monkeys. The representative result of the evaluation for compound 4b is shown in Table 6 compared to a structurally similar 3-aminoquinazolinedione.
Male Cynomologous Monkeys were dosed with compound dissolved in D5W at 5 mg/kg IV Infusion over 15 minutes. Blood samples were collected at 0, 0.167, 0.25, 0.33, 0.5, 1, 2, 4, 6, 8, 12 and 24 hours post dose.
(§7) Plasma from all samples were harvested following centrifugaltion and stored frozen until plasma concentrations were determined using liquid chromatography/mass spectroscopy methods. The concentration/time profile for each compound in each animal species was analyzed using non-compartmental pharmacokinetic analysis approach. In the table, clearance is defined as the volume of fluid cleared of drug from the body per unit of time. Clearance is a quantitative assessment of drug elimination. Drug elimination is the irreversible removal of drug from the body by all routes of elimination.

[2] = Test E pharmacokinetic behavior in rats; type: in vivo; settings: male, Wistar, plasma; Rat; 1 mg/kg IV infusion in D5W over 5 minutes
Protocol: as §5, §6
In this study, compounds were administered to male Wistar rats and were dosed at 1 mg/kgIV infusion in D5W over 5 minutes. Blood samples were drawn at 0, 0.083, 0.167, 0.25, 0.5, 1, 2, 4, 6, 8, 12, and 24 hours post dose.
as §7

[3] = Test E pharmacokinetic behavior in dogs; type: in vivo; settings: male, beagle, plasma; Dog; 5 mg/kg IV infusion over 15 minutes
Protocol: as §5, §6
Male Beagle Dogs were dosed with compound dissolved in D5W at 5 mg/kg IV Infusion over 15 minutes. Blood samples will be collected at 0, 0.167, 0.25, 0.33, 0.5, 1, 2, 4, 6, 8, 12 and 24 hours post dose.
as §7

[4] = Staphylococcus aureus, Gram positive, S. aureus 29213, read-out: Minimum Inhibitory Concentrations S. aureus 29213
[5] = Gram positive, E. faecalis RB1, read-out: Minimum Inhibitory Concentrations E. faecalis RB1
[6] = Gram positive, S. pyogenes C203, read-out: Minimum Inhibitory Concentrations S. pyogenes C203
[7] = Gram negative, E. coli B90, read-out: Minimum Inhibitory Concentrations E. coli B90
[8] = MC4100, Gram negative, E. coli MC 4100, read-out: Minimum Inhibitory Concentrations E. coli MC 4100
[9] = supercoiling of relaxed pBR322, 30 minutes at 37° C.

E. coli gyrase, sequence (P0AES4 whole entry, one chain of several): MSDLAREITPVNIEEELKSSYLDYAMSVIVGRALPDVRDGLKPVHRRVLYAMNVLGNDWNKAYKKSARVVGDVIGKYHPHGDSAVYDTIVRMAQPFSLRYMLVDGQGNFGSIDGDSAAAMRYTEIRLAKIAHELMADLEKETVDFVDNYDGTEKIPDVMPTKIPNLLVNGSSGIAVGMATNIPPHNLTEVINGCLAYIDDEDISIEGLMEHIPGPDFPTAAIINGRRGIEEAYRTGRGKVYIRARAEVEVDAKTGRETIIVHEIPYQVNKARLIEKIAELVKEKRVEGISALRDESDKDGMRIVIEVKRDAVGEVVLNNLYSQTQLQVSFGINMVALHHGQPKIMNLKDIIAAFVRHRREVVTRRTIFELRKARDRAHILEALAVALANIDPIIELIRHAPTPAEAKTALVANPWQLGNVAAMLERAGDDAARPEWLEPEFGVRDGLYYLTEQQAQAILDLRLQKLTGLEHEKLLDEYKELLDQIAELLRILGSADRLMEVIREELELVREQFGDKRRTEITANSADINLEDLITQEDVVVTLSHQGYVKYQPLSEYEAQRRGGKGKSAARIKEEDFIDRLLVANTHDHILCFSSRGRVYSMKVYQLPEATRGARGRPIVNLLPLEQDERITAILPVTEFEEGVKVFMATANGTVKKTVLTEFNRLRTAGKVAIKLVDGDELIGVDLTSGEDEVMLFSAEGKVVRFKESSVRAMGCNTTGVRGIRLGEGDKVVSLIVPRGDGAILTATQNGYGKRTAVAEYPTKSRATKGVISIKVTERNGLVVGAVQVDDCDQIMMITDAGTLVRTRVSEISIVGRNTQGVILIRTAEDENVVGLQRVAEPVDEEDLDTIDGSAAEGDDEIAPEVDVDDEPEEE

Compound | MIC fold increase N. g. 2709 (in parentheses) (N. gonorrhoeae 2709) | MIC fold increase N. g. 2693 (in parentheses) (N. gonorrhoeae 2693) | MIC fold increase S. aureus 2554 (in parentheses) (S. aureus 2554) | MIC fold increase S. aureus 2558 (in parentheses) (S. aureus 2558) | MIC fold increase S. aureus 2552 (in parentheses) (S. aureus 2552) | PD50 (S. pyogenes) [mg/kg] | MIC (N. gonorrhoeae 2637) [µg/mL] | MIC (N. gonorrhoeae 2709) [µg/mL] | MIC (S. aureus UC-76) [µg/mL] | MIC (E. faecalis RB1; [5]) [µg/mL] | MIC (E. coli Tol C) [µg/mL] | MIC (S. pyogenes C203; [6]) [µg/mL] | MIC (E. coli B90; [7]) [µg/mL] | MIC (E. coli MC 4100; [8]) [µg/mL] | MIC (S. aureus 2552; upregulated norA pump) [µg/mL] | IC50 (E. coli gyrase; [9]) [µM] | also measured
7-(3-[1-Amino-1-(2-fluorophenyl)methyl]pyrrolidin-1-yl}-1-cyclopropyl-6-fluoro-6-methyl-1H-quinazolinedione Hydrochloride [Example 7j] | (4x) | (8x) | (1x) | (1x) | (1x) | – | – | – | – | – | – | – | – | – | – | – | IC50 (E. coli gyrase): 0.8 µM; Minimum Inhibitory Concentrations N. g. 2637 (N. gonorrhoeae 2637): 0.13 µg/mL; Minimum Inhibitory Concentrations N. g. 2709 (N. gonorrhoeae 2709; gyrA QRDR mutations (S91F D95G)): 0.5 µg/mL; Minimum Inhibitory Concentrations N. g. 2693 (N. gonorrhoeae 2693; gyrA plus parC QRDR mutations [P88S and E91K]): 1.0 µg/mL; Minimum Inhibitory Concentrations S. aureus UC-76 (S. aureus UC-76): 0.06 µg/mL; Minimum Inhibitory Concentrations S. aureus 2554 (S. aureus 2554; norA plus point mutation at position 80 of grlA): 0.06 µg/mL; Minimum Inhibitory Concentrations S. aureus 29213 (S. aureus 29213; Gram positive, S. aureus 29213): 0.13 µg/mL; Minimum Inhibitory Concentrations E. faecalis RB1 (E. faecalis RB1; Gram positive, E. faecalis RB1): 0.25 µg/mL; Minimum Inhibitory Concentrations E. coli Tol C (E. coli Tol C; Gram negative, E. coli Tol C): 0.06 µg/mL; Minimum Inhibitory Concentrations S. pyogenes C203 (S. pyogenes C203; Gram positive, S. pyogenes C203): 0.03 µg/mL; Minimum Inhibitory Concentrations E. coli B90 (E. coli B90; Gram negative, E. coli B90): 0.25 µg/mL; Minimum Inhibitory Concentrations E. coli MC 4100 (E. coli MC 4100; Gram negative, E. coli MC 4100): 8.0 µg/mL; Minimum Inhibitory Concentrations S. aureus 2558 (S. aureus 2558; norA, grlA plus point mutation at position 84 of gyrA): 0.06 µg/mL; Minimum Inhibitory Concentrations S. aureus 2552 (S. aureus 2552; upregulated norA pump): 0.06 µg/mL
O=C(O)c1cn(C2CC2)c2cc(N3CCNCC3)c(F)cc2c1=O [Ciprofloxacin, ciprofloxacin, reference compound] | (30x) | (1000x) | (15x) | (123x) | (15x) | >100.0 | 0.002 | 0.06 (≈ 0.181 µM) | 0.13 (≈ 0.392 µM) | 0.5 (≈ 1.51 µM) | < 0.01 | 0.5 (≈ 1.51 µM) | < 0.01 | < 0.02 | 2 (≈ 6.04 µM) | – | MIC (S. aureus 29213; [4]): 0.5 µg/mL (≈ 1.51 µM)
CN[C@@H](C)[C@@H]1CCN(c2c(F)cc3c(=O)[nH]c(=O)n(C4CC4)c3c2C)C1 [Example 2, 1-Cyclopropyl-6-fluoro-8-methyl-7-[(R)-3-((S)-1-methylaminoethyl)pyrrolidin-1-yl]-1H-quinazolinedione] | (8x) | (16x) | (2x) | (4x) | (2x) | 10.8 | 0.5 | 4 (≈ 11.1 µM) | 0.25 (≈ 0.694 µM) | 0.25 (≈ 0.694 µM) | 0.25 (≈ 0.694 µM) | 0.03 (≈ 0.0832 µM) | 0.5 (≈ 1.39 µM) | 8 (≈ 22.2 µM) | 0.5 (≈ 1.39 µM) | 2.1 | MIC (S. aureus 29213; [4]): 0.5 µg/mL (≈ 1.39 µM)
CN[C@@H](C)[C@@H]1CCN(c2c(F)cc3c(=O)[nH]c(=O)n(C4CC4)c3c2OC)C1 [Example 3, 1-Cyclopropyl-6-fluoro-8-methoxy-7-[(R)-3-((S)-1-methylaminoethyl)pyrrolidin-1-yl]-1H-quinazolinedione] | – | – | – | – | – | – | – | – | – | 2 (≈ 5.31 µM) | 0.5 (≈ 1.33 µM) | 0.13 (≈ 0.345 µM) | 2 (≈ 5.31 µM) | 32 (≈ 85 µM) | – | 7 | melting point: 162 to 164 °C
Cc1c(N2CC[C@@H]([C@H](C)N)C2)c(F)cc2c(=O)[nH]c(=O)n(C3CC3)c12 [Example 4b, 7-[(R)-3-((S)-1-Aminoethyl)pyrrolidin-1-yl]-1-cyclopropyl-6-fluoro-8-methyl-1H-quinazolinedione Hydrochloride] | (8x) | (8x) | (2x) | (8x) | (4x) | 3.6 | 0.25 | 2 | 0.13 | – | 0.13 | – | – | – | 0.5 | 0.6 | MIC (S. aureus 29213; Staphylococcus aureus, 29213, read-out: Minimum Inhibitory Concentrations S. aureus 29213): 0.25 µg/mL; MIC (E. faecalis RB1; RB1, read-out: Minimum Inhibitory Concentrations E. faecalis RB1): 0.13 µg/mL; MIC (S. pyogenes C203; C203, read-out: Minimum Inhibitory Concentrations S. pyogenes C203): 0.015 µg/mL; MIC (E. coli B90; B90, read-out: Minimum Inhibitory Concentrations E. coli B90): 0.13 µg/mL; MIC (E. coli MC 4100; MC4100, read-out: Minimum Inhibitory Concentrations E. coli MC 4100): 4 µg/mL
Cc1c(N2CC[C@@H]([C@H](C)N)C2)c(F)cc2c(=O)[nH]c(=O)n(C3CC3)c12 [drawing 387] | – | – | – | – | – | – | – | – | – | – | – | – | – | – | – | – | clearance [1]: 17 mL/min/kg; half-life [1]: 4.1 h; clearance [2]: 47 mL/min/kg; half-life [2]: 1.9 h; clearance [3]: 8.7 mL/min/kg; half-life [3]: 6.3 h
Cc1c(N2CC[C@@H]([C@H](C)N)C2)c(F)cc2c(=O)n(N)c(=O)n(C3CC3)c12 [reference compound] | – | – | – | – | – | – | – | – | – | – | – | – | – | – | – | – | clearance [1]: 24 mL/min/kg; half-life [1]: 2.2 h; clearance [2]: 62 mL/min/kg; half-life [2]: 2 h; clearance [3]: 21 mL/min/kg; half-life [3]: 2.4 h

— patent US20030114666A1, “Antibacterial agents” (priority 2001, published 2003)
